One series has as its target KRAS WT (Homo sapiens, UniProt P01116). Briefly: Selectivity panel (Table 3). The class given is binding.
A further series addresses TCPTP (Homo sapiens, UniProt P17706). Briefly: Selectivity panel (Table 3). The class given is biochemical.
For a further series, the target named is WDR5 (Homo sapiens, UniProt P61964). Kind of series: WDR5 TR-FRET Assay. The class given is binding. Conditions: 5 nM WDR5 protein, 10 nM peptide, read-out: IC50 (MLL1-WDR5 PPI inhibitory activity). As for the experimental part:
WDR5 TR-FRET Assay Procedure: Stock compounds were transferred to the assay plate by Echo Liquid Handler. Reactions were performed in the assay buffer (1×PBS, 300 mM NaCl, 0.5 mM TCEP, 0.1% CHAPS) containing 5 nM WDR5 protein, 10 nM peptide (Ac-ARTEVHLRKS-[Ahx-Ahx][C]-Alexa Fluor 488-NH2) and 0.25 nM Tb-anti His antibody (Tb-Ab) in 384-well white plate (PerkinElmer) with a final volume of 20 μl. Compounds were incubated with WDR5 protein for 30 min at room temperature. Plates were covered, protected from light and incubated for 60 min. at room temperature after adding the peptide and Tb-Ab. EnVision Multimode Plate Reader (PerkinElmer) was used for the TR-FRET assay with excitation wavelength at 340 nm and emission wavelength at 495 and 520 nm. The ratio of the 520/495 nm wavelengths were used to assess the degree of the FRET signal. IC50 was calculated by fitting the inhibition data using XLfit software to sigmoidal dose-response model.

The nature of series [1]: Predicted brain concentrations based on mouse/rat PK/BBB data. The following applies: Equivalent Human 6.5 mg/kg. As for the experimental part:
The ability of a compound of Formula (IIIb) (HBI_084 (HBI-2375)) to cross the BBB is determined in a population comprising one or more human subjects by orally (PO) or intravenously (IV) administering a pharmaceutical composition comprising a compound of Formula (IIIb) to the individual members of the population of human subjects at one or more doses described in Example 5. Blood samples and CSF are drawn from the subjects and compound concentrations are determined in the blood plasma and CSF of the subjects as described in Example 4. Pharmacokinetic parameters are determined by means analogous to those described in Examples 1-4. Doses for HBI-2375 may be based on a target concentration in subjects' brain predicted using the following table.

The target in a further series is TEAD2 (Homo sapiens, UniProt Q15562). Briefly: Selectivity panel (Table 3). The class given is binding.
Series [2] can be described thus: Metabolite ID in Liver S9. Conditions: HBI-2375 and metabolites in Rat liver S9. The class given is in vitro ADME.
Another series can be described thus: Liver S9 stability assay. The class given is in vitro ADME, human. As for the experimental part:
Liver S9 stability assay: Test compounds (1 μM) and positive control were incubated with 5 mM GSH and liver S9 (1 mg protein/ml) from multiple species (including human, monkey, dog, rat and mouse) at 37° C. at 0, 10, 30, and 60 minutes in duplicate. After adding the stop solution, 100 μL of supernatant were analyzed by LC-MS/MS. The % remaining of test compound, T1/2 (min), and CLint (μL/min/mg) were calculated and were reported.

A further series deals with CD39 (Homo sapiens, UniProt P49961). Briefly: Selectivity panel (Table 3). The class given is biochemical.
A short description of the next series: Metabolite ID in plasma. The class given is in vitro ADME. Conditions: HBI-2375 and metabolites in Mouse plasma.
The target of another series is T1, BRD4-BD2 (Homo sapiens, UniProt O60885).
T1 construct: BRD4-BD2
Kind of series: Selectivity panel (Table 3). The class given is binding.

Series [3] is described as follows: Metabolite ID in Liver S9. The class given is in vitro ADME. Conditions: HBI-2375 and metabolites in Dog liver S9.
The target of another series is TEAD4 (Homo sapiens, UniProt Q15561). Kind of series: Selectivity panel (Table 3). The class given is binding.

As a reminder, the IC50 is the concentration that gives 50% inhibition. The term half-life denotes the time in which the quantity being followed falls by half. Read a low half-life as fast loss. Usually microsomal CLint stands for a measure of how fast metabolising enzymes remove a compound, apart from limits set by blood flow. Lower therefore signals greater metabolic stability.

SMILES strings stand for the structures.

Chain of KRAS WT (P01116 1-188 isoform P01116-2): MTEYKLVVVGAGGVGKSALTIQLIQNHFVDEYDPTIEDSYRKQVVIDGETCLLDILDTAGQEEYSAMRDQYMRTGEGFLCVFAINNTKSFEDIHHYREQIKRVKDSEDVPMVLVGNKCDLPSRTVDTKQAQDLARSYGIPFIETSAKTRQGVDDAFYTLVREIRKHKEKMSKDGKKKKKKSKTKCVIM
Chain of TCPTP (P17706 whole entry, species assumed): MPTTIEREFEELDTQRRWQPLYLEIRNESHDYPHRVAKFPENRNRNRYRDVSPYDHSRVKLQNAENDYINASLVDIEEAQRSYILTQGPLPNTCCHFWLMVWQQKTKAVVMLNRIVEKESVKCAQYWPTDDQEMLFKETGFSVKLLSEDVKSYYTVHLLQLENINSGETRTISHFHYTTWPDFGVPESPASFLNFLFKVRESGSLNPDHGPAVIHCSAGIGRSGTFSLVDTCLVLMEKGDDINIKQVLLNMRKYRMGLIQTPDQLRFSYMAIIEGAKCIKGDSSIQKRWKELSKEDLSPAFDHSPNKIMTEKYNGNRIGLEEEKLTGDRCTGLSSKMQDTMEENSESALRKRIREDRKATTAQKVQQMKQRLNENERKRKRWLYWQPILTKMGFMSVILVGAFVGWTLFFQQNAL
Chain of TEAD2 (Q15562 whole entry, species assumed): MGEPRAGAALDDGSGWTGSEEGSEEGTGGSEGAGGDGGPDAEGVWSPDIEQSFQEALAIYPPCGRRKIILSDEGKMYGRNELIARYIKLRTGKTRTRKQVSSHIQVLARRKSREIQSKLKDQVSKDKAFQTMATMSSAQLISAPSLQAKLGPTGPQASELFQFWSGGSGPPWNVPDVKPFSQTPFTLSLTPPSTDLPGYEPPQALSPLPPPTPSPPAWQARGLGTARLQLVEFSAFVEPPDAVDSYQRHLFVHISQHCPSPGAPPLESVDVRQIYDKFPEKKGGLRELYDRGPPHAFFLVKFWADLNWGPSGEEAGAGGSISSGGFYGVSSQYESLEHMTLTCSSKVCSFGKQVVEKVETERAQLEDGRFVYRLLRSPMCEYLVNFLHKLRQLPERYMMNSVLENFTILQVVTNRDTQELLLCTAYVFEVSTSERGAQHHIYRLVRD
Chain of TEAD4 (Q15561 whole entry, species assumed): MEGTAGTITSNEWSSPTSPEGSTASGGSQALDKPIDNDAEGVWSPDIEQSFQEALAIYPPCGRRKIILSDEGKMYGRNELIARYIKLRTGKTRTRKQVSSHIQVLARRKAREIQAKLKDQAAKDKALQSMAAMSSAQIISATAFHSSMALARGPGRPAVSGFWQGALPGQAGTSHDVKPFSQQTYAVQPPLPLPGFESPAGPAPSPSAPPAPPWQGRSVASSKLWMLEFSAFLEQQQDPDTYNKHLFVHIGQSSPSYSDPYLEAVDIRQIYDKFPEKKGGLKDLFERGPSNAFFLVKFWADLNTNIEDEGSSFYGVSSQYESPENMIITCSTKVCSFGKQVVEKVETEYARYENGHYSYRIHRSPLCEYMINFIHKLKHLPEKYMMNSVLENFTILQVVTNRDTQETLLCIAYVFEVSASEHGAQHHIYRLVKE
Chain of CD39 (P49961 whole entry, species assumed): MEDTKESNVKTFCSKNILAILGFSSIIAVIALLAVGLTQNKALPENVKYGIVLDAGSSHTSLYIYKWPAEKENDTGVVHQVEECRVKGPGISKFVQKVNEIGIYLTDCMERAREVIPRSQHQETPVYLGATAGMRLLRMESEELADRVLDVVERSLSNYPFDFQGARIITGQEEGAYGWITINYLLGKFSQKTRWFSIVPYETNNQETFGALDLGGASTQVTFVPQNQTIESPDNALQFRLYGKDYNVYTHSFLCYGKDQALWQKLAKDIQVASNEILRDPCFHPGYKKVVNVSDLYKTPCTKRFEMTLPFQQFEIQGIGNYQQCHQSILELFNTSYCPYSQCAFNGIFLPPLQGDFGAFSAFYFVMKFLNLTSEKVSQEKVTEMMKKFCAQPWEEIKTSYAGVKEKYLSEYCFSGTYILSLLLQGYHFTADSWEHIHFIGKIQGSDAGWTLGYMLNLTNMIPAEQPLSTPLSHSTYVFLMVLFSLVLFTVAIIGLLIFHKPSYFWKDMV

`Cc1c(F)c(N)cc(C(=O)Nc2cc(-n3cc(C(=O)N4CCN(C)CC4)nn3)c(F)cc2N2C[C@@H](C)N(C)[C@@H](C)C2)c1Cl` [HYBI-084, 5-amino-2-chloro-4-fluoro-N-(4-fluoro-5-(4-(4-methylpiperazine-1-carbonyl)-1H-1,2,3-triazol-1-yl)-2-((3S,5R)-3,4,5-trimethylpiperazin-1-yl)phenyl)-3-methylbenzamide]: the half-inhibitory concentration (IC50) against KRAS WT is greater than 1000 nM; at TCPTP, greater than 1000 nM; at WDR5, 4.48 nM; on TEAD2, greater than 1000 nM; at CD39, greater than 1000 nM; on BRD4-BD2, greater than 1000 nM. The same compound returned a half-inhibitory concentration (IC50) against TEAD4 greater than 1000 nM. Also, the entries for the “Predicted Mean Brain Concentration, Cmin = 24 h” value in [1] (estimated from repeated PO mouse), in [1] (estimated from single PO mouse) and in series [1] (estimated from single PO rat) were 11.1 ng/g, 4.5 ng/g and 3.6 ng/g, respectively. The “Relative Abundance (UV Peak Area % Total)” value in series [2] came out at 71.86%; in the series “Metabolite ID in plasma”, 92.78%; in series [3], 70.71%. The compound also yielded a half-life at 1 μM in “Liver S9 stability assay” (Human liver S9) greater than 2.42 h. In addition, the microsomal CLint at 1 μM in “Liver S9 stability assay” (Human liver S9) was less than 4.8 µL/min/mg. For the same compound, in the series “Liver S9 stability assay” (Human liver S9, 1 μM, 5 mM GSH, 37° C.), the “% Remaining after 60 min incubation” value came out at 85.1%.

Source of the values: patent US20230293539A1, “MLL1-WDR5 PROTEIN-PROTEIN INTERACTION INHIBITOR COMPOUNDS AND USES THEREOF” (HUYABIO International, LLC, priority 2022, published 2023).
